Assay results reported in paper PMC11719724, “Antimicrobial Peptides from Porcine Blood Cruor Hydrolysates as a Promising Source of Antifungal Activity” (Foods, 2024).
Where no end group is shown, it is not given here.

How the values were obtained:
[1] = tested on: Paecilomyces spp. 5332-9a; assay type: cell-based; details: Figure 1 pictures C,D; peptides 2.5 mM, natamycin 50 µg/mL, 80 µL per well; 25 °C, 48 h
Experimental: (§1) The sixteen peptides were initially tested using the agar well diffusion method against the indicator strains E. coli, L. ivanovii, R. mucilaginosa, and Paecilomyces spp., as previously described in [22]. To perform this procedure, 25 µL of the prepared culture suspension (adjusted to 10^6 CFU/mL for bacteria and yeasts and 10^5 CFU/mL for molds) was diluted in 25 mL of Tryptic Soy Broth (TSB) (for bacterial strains) or Potato Dextrose Broth (PDB) (for fungal strains) supplemented with 0.75% agar and poured into a Petri dish (90 mm diameter) until dried. The culture media of the suspension was prepared using TSB for bacterial cultures and peptone water (10% w/v) supplemented with 0.1% Tween 80 (w/w) for fungal cultures as it enhances spore dispersion. Subsequent to the drying process, wells were formed using a sterile 5 mL pipette. A volume of 80 µL of each peptide at a concentration of 2.5 mM was added to each well. Ampicillin (MilliporeSigma Canada Ltd., Oakville, ON, Canada), at a concentration of 256 µg/mL and natamycin (MilliporeSigma Canada Ltd., Oakville, ON, Canada) at 50 µg/mL, were used as positive controls for bacterial and fungal tests, respectively, as they are wide-spectrum antimicrobials. The solvent of the peptides was included as negative control in all experiments. […] Thereafter, inhibition halos were measured, and images were captured using a Biorad Chemidoc camera.

[2] = tested on: Rhodotorula mucilaginosa 27173; assay type: cell-based; details: Figure 1 pictures A,B; peptides 2.5 mM, natamycin 50 µg/mL, 80 µL per well; 25 °C, 48 h
Experimental: as §1

[3] = tested on: Paecilomyces spp. 5332-9a; assay type: cell-based; details: 48 h
Experimental: (§2) A microtitration assay was conducted to determine the minimum inhibitory concentration (MIC) of the peptides against the collection of indicator microorganisms. The growth medium used for the isolated bacterial and fungal strains was TSB and PDB, respectively. In brief, 175 µL of the culture medium was added to the wells of column 1 (negative growth control) and 125 µL to the wells of columns 2–12. Subsequently, 125 µL of each peptide (stock concentration of 2.5 mM), positive control (stock concentration of 256 µg/mL for ampicillin in bacterial tests and 50 µg/mL for natamycin in fungal tests) and negative control (10% DMSO in H2O (v/v)) were added to the wells in column 3 and mixed by pipetting up and down 10 times. A total of 125 µL from column 3 was removed and transferred to column 4, where serial dilutions were performed until the final dilution reached column 12. The final volume was then discarded. […] Subsequently, 50 µL of the indicator strain suspension (at a concentration of 10^5 CFU/mL for yeasts and bacteria and 10^4 CFU/mL for molds) was introduced to all the wells, except for column 1. The culture medium used for culture suspension was identical to that employed in the agar well diffusion method. The microplate was incubated for 24 h at 37 °C for bacterial isolates and for 48 h at 25 °C for fungal isolates.
(§3) The minimal bactericidal/fungicidal concentration (MBC/MFC) was calculated by transferring 10 µL of the wells where no growth could be detected to agar plates (TSA for bacterial isolates and Dichloran Rose Bengal Chloramphenicol Agar (DBRC)) (BD Difco Laboratories, Sparks, MD, USA). After incubation (24 h, 37 °C for bacteria and 48 h, 25 °C, for fungi), the peptide concentration with which no growth was observed, was considered to be the MBC/MFC. The MBC/MIC and MFC/MIC ratios were calculated in order to ascertain the effect of the peptides. A ratio of ≤4 is indicative of bactericidal/fungicidal efficacy, whereas a ratio of >4 indicates bacteriostatic/fungistatic activity.

[4] = tested on: Rhodotorula mucilaginosa 27173; assay type: cell-based; details: 48 h
Experimental: as §2, §3

[5] = tested on: Debaryomyces hansenii LL11042; assay type: cell-based; details: 48 h
Experimental: as §2, §3

Eurotium rubrum 3071.14a = assay type: cell-based; details: 48 h
Experimental: as §2, §3

[6] = tested on: Penicillium chrysogenum LMA-212; assay type: cell-based; details: 48 h
Experimental: as §2, §3

A. versicolor LMA-370 = assay type: cell-based, Aspergillus versicolor; details: 48 h
Experimental: as §2, §3

Mucor racemosus LMA-722 = assay type: cell-based; details: 48 h
Experimental: as §2, §3

C. guilliermondii 27168 = assay type: cell-based, Candida guilliermondii; details: 48 h
Experimental: (§4) A microtitration assay was conducted to determine the minimum inhibitory concentration (MIC) of the peptides against the collection of indicator microorganisms. The growth medium used for the isolated bacterial and fungal strains was TSB and PDB, respectively. In brief, 175 µL of the culture medium was added to the wells of column 1 (negative growth control) and 125 µL to the wells of columns 2–12. Subsequently, 125 µL of each peptide (stock concentration of 2.5 mM), positive control (stock concentration of 256 µg/mL for ampicillin in bacterial tests and 50 µg/mL for natamycin in fungal tests) and negative control (10% DMSO in H2O (v/v)) were added to the wells in column 3 and mixed by pipetting up and down 10 times. A total of 125 µL from column 3 was removed and transferred to column 4, where serial dilutions were performed until the final dilution reached column 12. The final volume was then discarded. […]
(§5) The minimal bactericidal/fungicidal concentration (MBC/MFC) was calculated by transferring 10 µL of the wells where no growth could be detected to agar plates (TSA for bacterial isolates and Dichloran Rose Bengal Chloramphenicol Agar (DBRC)) (BD Difco Laboratories, Sparks, MD, USA). […] The MBC/MIC and MFC/MIC ratios were calculated in order to ascertain the effect of the peptides. […]

P. commune 27163 = assay type: cell-based, Penicillium commune; details: 48 h
Experimental: as §4, §5

| Molecule | MFC, Activity Against Paecilomyces spp. [3] [µM] | MIC, Activity Against Paecilomyces spp. [3] [µM] | MFC, Activity Against R. mucilaginosa [4] [µM] | MIC, Activity Against R. mucilaginosa [4] [µM] | MIC, Debaryomyces hansenii [5] [µM] | MIC, Eurotium rubrum (Eurotium rubrum 3071.14a) [µM] | MIC, Penicillium chrysogenum [6] [µM] | MIC, Aspergillus versicolor (A. versicolor LMA-370) [µM] | also measured |
| --- | --- | --- | --- | --- | --- | --- | --- | --- | --- |
| C[C@@H]1C/C=C/C=C/C=C/C=C/[C@H](O[C@@H]2O[C@H](C)[C@@H](O)[C@H](N)[C@@H]2O)C[C@@H]2O[C@](O)(C[C@@H](O)C[C@H]3O[C@@H]3/C=C/C(=O)O1)C[C@H](O)[C@H]2C(=O)O [Natamycin, natamycin] |  |  |  |  |  |  |  |  | inhibition halo (qualitative) [1]: Clear inhibition halos; inhibition halo (qualitative) [2]: Clear inhibition halos |
| QKVVAGVANALAHKYH [Pep14] | 78 ± 0 | 78 ± 0 | 78 ± 0 | 78 ± 0 |  |  |  |  |  |
| LAHKYH [Pep15] |  | 1250 ± 0 | 1250 ± 0 | 1250 ± 0 |  |  |  |  |  |
| FRLLGNVIVVV [Pep4] | 625 ± 0 | 625 ± 0 |  | 375 | 312 ± 0 | 312 ± 0 | 156 ± 0 | 312 ± 0 |  |
| NALAHKYH [Pep3] | 1250 ± 0 | 625 ± 0 | 625 ± 0 | 625 ± 0 |  |  |  |  |  |
| FQKVVAGVANALAHKYH [Pep5] | 9 ± 0 | 9 ± 0 | 78 ± 0 | 39 ± 0 | 156 ± 0 | 39 ± 0 | 312 ± 0 | 39 ± 0 | MFC, Debaryomyces hansenii [5]: 156 ± 0 µM; MFC, Eurotium rubrum (Eurotium rubrum 3071.14a): 78 ± 0 µM; MFC, Mucor racemosus (Mucor racemosus LMA-722): 312 ± 0 µM; MIC, Mucor racemosus (Mucor racemosus LMA-722): 312 ± 0 µM; MFC, Candida guilliermondii (C. guilliermondii 27168): 625 ± 0 µM; MIC, Candida guilliermondii (C. guilliermondii 27168): 312 ± 0 µM; MFC, Aspergillus versicolor (A. versicolor LMA-370): 78 ± 0 µM; MFC, Penicillium commune (P. commune 27163): 312 ± 0 µM; MIC, Penicillium commune (P. commune 27163): 312 ± 0 µM |
